Seven compounds from PubChem BioAssay (NCI) can be followed below.

Common to all, as to test: inhibition of tumour cell growth, NCI panel, 48 h
In assay [1] the test system is NCI-H23 lung.
For assay [2], the system named is KM12 colon.
The subject of assay [3] is CAKI-1 renal.
The subject of assay [4] is SF-539 CNS.
The test system of assay [5] is HT29 colon.
Assay [6] has as its system 786-0 renal.
In assay [7] the test system is OVCAR-8 ovarian.
Assay [8] concerns UO-31 renal.
Assay [9] has as its system M14 melanoma.
Assay [10] relates to NCI-H460 lung.

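48-hour exposure; five concentrations; linearly interpolated endpoints. GI50 marks 50% less growth. Definition used: TGI = concentration required for complete inhibition of growth.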 A value given as a limit tells only on which side of the number the result lay.

`Cc1ccc(S(=O)(=O)OC2CSSCC2OS(=O)(=O)c2ccc(C)cc2)cc1` (stereo not given): the TGI in assay [1] amounted to 33.3 µM; in assay [2], 28.3 µM; in assay [3], 26.1 µM; in [4], 22.8 µM; in assay [5] it was 22 µM; in assay [6], 25.1 µM. Further, the TGI in assay [7] amounted to 26.1 µM; in assay [8] it was 28.5 µM; in [9], 25.1 µM; in assay [10], 31.8 µM.

`O=C(Nc1nc(-c2ccccc2Cl)cs1)c1cc(-c2ccc(Cl)cc2)nc2ccc(Cl)cc12`: the GI50 in assay [1] is 3.8 µM; in [2], 3.5 µM; in assay [3], 19.6 µM; in assay [4], 2.12 µM; in assay [5], 3.52 µM; in assay [6], 2.84 µM. In addition, the GI50 in assay [7] is 1.19 µM; in assay [8], 2.46 µM; in assay [9] it was 0.918 µM; in assay [10] it was 31.8 µM. The TGI in assay [1] is > 100 µM; in assay [2], 69.5 µM; in assay [3], > 100 µM; in [4], 8.31 µM; in assay [5], > 100 µM; in assay [6], 20 µM. Also, the TGI in [7] is 16.2 µM; in assay [8], 52.6 µM; in [9] it was 4.76 µM; in [10], > 100 µM.

`NNc1ncnc2cccc(Cl)c12`: the TGI in assay [1], in assay [2], in [3], in assay [4], in assay [5] and in assay [6] was > 100 µM throughout. For the same compound, the TGI in [7], in assay [8], in assay [9] and in assay [10] was > 100 µM throughout.

Turning to `CC/C(=C(/CC)c1ccc(O)cc1)c1ccc(O)cc1`, the GI50 in assay [1] was 5.76 µM; in [2] it was 3.64 µM; in [3], 4.22 µM; in assay [4] it was 5.84 µM; in [5], 5.16 µM; in assay [6], 5.59 µM. The GI50 in assay [7] is 7.9 µM; in assay [8], 6.38 µM; in [9], 4.57 µM; in [10] it was 4.05 µM. Further, the TGI in assay [1] came out at 23 µM; in assay [2] it was 12.9 µM; in assay [3], 27.8 µM; in assay [4], 19.7 µM; in assay [5] it was 17.9 µM; in assay [6], 18.6 µM. The TGI in [7] is 37.1 µM; in assay [8], 21.6 µM; in [9], 15.7 µM; in [10], 15.2 µM.

Consider `CNC(=O)c1cc(Oc2ccc3nc(NC(=O)Nc4cc(C(F)(F)F)cc(C(F)(F)F)c4)sc3c2)ccn1`, for which the GI50 in [1] is 0.573 µM; in assay [2], 0.444 µM; in assay [3], 1.15 µM; in assay [4], 1.24 µM; in assay [5], 1.21 µM; in assay [6] it was 1.42 µM. Besides, the GI50 is 1.33 µM in assay [7], 1.26 µM in assay [8], 1.5 µM in assay [9] and 1.23 µM in assay [10]. For the same compound, the TGI was 2.38 µM in [1]; 2 µM in [2]; 2.69 µM in assay [3]; 2.8 µM in [4]; 2.73 µM in assay [5]; 2.86 µM in assay [6]. Besides, the TGI in [7] is 2.69 µM; in assay [8], 2.68 µM; in [9], 3.22 µM; in assay [10], 2.85 µM.

Take `Cc1cc(N(CCC#N)CCC#N)ccc1CC1N=C(c2ccccc2)OC1=O` (stereo not given): the TGI in [1], in assay [2], in assay [3], in assay [4], in assay [5] and in [6] was > 100 µM each time. For the same compound, the TGI in assay [7], in assay [8], in assay [9] and in assay [10] was > 100 µM each time.

On to `COC1/C=C/OC2(C)Oc3c(C)c(O)c4c(O)c(c(C=NOC(c5ccccc5)c5ccccc5)c(O)c4c3C2=O)NC(=O)/C(C)=C/C=C/C(C)C(O)C(C)C(O)C(C)C(OC(C)=O)C1C` (stereo not given), for which the GI50 is 1.48 µM in assay [1]; 0.992 µM in [2]; 1.77 µM in assay [3]; 0.979 µM in assay [4]; 1.01 µM in assay [5]; 1.29 µM in assay [6]. Besides, the GI50 in assay [7] was 1.56 µM; in assay [8], 1.65 µM; in assay [9], 1.18 µM; in assay [10], 1.05 µM. The TGI in assay [1] was 5.43 µM; in [2], 1.96 µM; in assay [3], 7.15 µM; in [4] it was 1.95 µM; in assay [5], 2.13 µM; in assay [6], 3.06 µM. Further, the TGI in [7] is 4.64 µM; in [8], 7.74 µM; in assay [9] it was 2.82 µM; in assay [10], 2.18 µM.
